Each block holds one compound with its values, some of them ahead of it.
Tested on: 958667-338-R-J2-PDC tumor spheroids viability
Assay: Anticancer human tumor 958667-338-R-J2-PDC patient-derived colon adenocarcinoma cell line growth inhibition [PI3K]
Conditions: spheroids with HUVEC and MSC; for IC50: curve of first compound; for viability, T/C: stronger effect = lower value
In short: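 Combination activity was assessed by viability in multicellular tumor spheroids carrying HUVEC and MSC components. Agents were tested with PI3K inhibitors from a Cmax-based top dose (or 10 microM) downward in half-log increments.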

[1] = second compound 0.00316 µM, first compound 0.0316 µM
[2] = second compound 0.00316 µM, first compound 0.1 µM
[3] = second compound 0.00316 µM, first compound 0.316 µM
[4] = second compound 0.00316 µM, first compound 1 µM
[5] = second compound 0.00316 µM, first compound 3.16 µM
[6] = second compound 0.00316 µM, first compound 10 µM
[7] = second compound 0.01 µM, first compound 0.0316 µM
[8] = second compound 0.01 µM, first compound 0.1 µM
[9] = second compound 0.01 µM, first compound 0.316 µM
[10] = second compound 0.01 µM, first compound 1 µM
[11] = second compound 0.01 µM, first compound 3.16 µM
[12] = second compound 0.01 µM, first compound 10 µM
[13] = second compound 0.0316 µM, first compound 0.0316 µM
[14] = second compound 0.0316 µM, first compound 0.1 µM
[15] = second compound 0.0316 µM, first compound 0.316 µM
[16] = second compound 0.0316 µM, first compound 1 µM
[17] = second compound 0.0316 µM, first compound 3.16 µM
[18] = second compound 0.0316 µM, first compound 10 µM
[19] = second compound 0.1 µM, first compound 0.0316 µM
[20] = second compound 0.1 µM, first compound 0.1 µM
[21] = second compound 0.1 µM, first compound 0.316 µM
[22] = second compound 0.1 µM, first compound 1 µM
[23] = second compound 0.1 µM, first compound 3.16 µM
[24] = second compound 0.1 µM, first compound 10 µM
[25] = second compound 0.316 µM, first compound 0.0316 µM
[26] = second compound 0.316 µM, first compound 0.1 µM
[27] = second compound 0.316 µM, first compound 0.316 µM
[28] = second compound 0.316 µM, first compound 1 µM
[29] = second compound 0.316 µM, first compound 3.16 µM
[30] = second compound 0.316 µM, first compound 10 µM
[31] = second compound 1 µM, first compound 0.0316 µM
[32] = second compound 1 µM, first compound 0.1 µM
[33] = second compound 1 µM, first compound 0.316 µM
[34] = second compound 1 µM, first compound 1 µM
[35] = second compound 1 µM, first compound 3.16 µM
[36] = second compound 1 µM, first compound 10 µM
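Note: spheroids exposed to compounds for seven days before readout.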

IC50 (second compound 0.00316 µM): > 10 µM | IC50 (second compound 0.01 µM): > 10 µM | IC50 (second compound 0.0316 µM): 6.5 µM | IC50 (second compound 0.1 µM): 1.09 µM | IC50 (second compound 0.316 µM): < 0.0316 µM | IC50 (second compound 1 µM): < 0.0316 µM
Compound: C#Cc1c(F)ccc2cc(O)cc(-c3ncc4c(N5CC6CCC(C5)N6)nc(OCC56CCCN5CC(F)C6)nc4c3F)c12 (stereo not drawn) + COc1c(OCCCN2CCOCC2)ccc2c3n(c(=NC(=O)c4cnc(N)nc4)nc12)CCN3
viability, T/C [1]: 112% | viability, T/C [2]: 107% | viability, T/C [3]: 83.9% | viability, T/C [4]: 108% | viability, T/C [5]: 86.9% | viability, T/C [6]: 74% | viability, T/C [7]: 93.4% | viability, T/C [8]: 86.9% | viability, T/C [9]: 109% | viability, T/C [10]: 73.3% | viability, T/C [11]: 68.7% | viability, T/C [12]: 56.7% | viability, T/C [13]: 70.8% | viability, T/C [14]: 86.9% | viability, T/C [15]: 73.2% | viability, T/C [16]: 70.4% | viability, T/C [17]: 62.1% | viability, T/C [18]: 42.9% | viability, T/C [19]: 71.7% | viability, T/C [20]: 63.4% | viability, T/C [21]: 54.6% | viability, T/C [22]: 51.6% | viability, T/C [23]: 46.7% | viability, T/C [24]: 28% | viability, T/C [25]: 35.1% | viability, T/C [26]: 41.2% | viability, T/C [27]: 35.8% | viability, T/C [28]: 32.7% | viability, T/C [29]: 20.4% | viability, T/C [30]: 10% | viability, T/C [31]: 14.1% | viability, T/C [32]: 18.1% | viability, T/C [33]: 24.2% | viability, T/C [34]: 15.9% | viability, T/C [35]: 8.98% | viability, T/C [36]: 1.67%

IC50 (second compound 0.00316 µM): > 10 µM | IC50 (second compound 0.01 µM): > 10 µM | IC50 (second compound 0.0316 µM): > 10 µM | IC50 (second compound 0.1 µM): > 10 µM | IC50 (second compound 0.316 µM): < 0.0316 µM | IC50 (second compound 1 µM): < 0.0316 µM
Compound: C=CC(=O)N1CCN(c2nc(=O)n(-c3c(C)ccnc3C(C)C)c3nc(-c4c(O)cccc4F)c(F)cc23)C(C)C1 (stereo not drawn) + COc1c(OCCCN2CCOCC2)ccc2c3n(c(=NC(=O)c4cnc(N)nc4)nc12)CCN3
viability, T/C [1]: 97.1% | viability, T/C [2]: 97.6% | viability, T/C [3]: 88.8% | viability, T/C [4]: 117% | viability, T/C [5]: 103% | viability, T/C [6]: 121% | viability, T/C [7]: 103% | viability, T/C [8]: 103% | viability, T/C [9]: 87% | viability, T/C [10]: 92.6% | viability, T/C [11]: 107% | viability, T/C [12]: 94% | viability, T/C [13]: 82.1% | viability, T/C [14]: 83% | viability, T/C [15]: 71.8% | viability, T/C [16]: 72.4% | viability, T/C [17]: 78.2% | viability, T/C [18]: 69.9% | viability, T/C [19]: 61% | viability, T/C [20]: 72.7% | viability, T/C [21]: 52.9% | viability, T/C [22]: 62.6% | viability, T/C [23]: 72.4% | viability, T/C [24]: 64.2% | viability, T/C [25]: 36.3% | viability, T/C [26]: 36% | viability, T/C [27]: 44.4% | viability, T/C [28]: 42% | viability, T/C [29]: 47.3% | viability, T/C [30]: 46.1% | viability, T/C [31]: 22.6% | viability, T/C [32]: 23.1% | viability, T/C [33]: 18.8% | viability, T/C [34]: 21.2% | viability, T/C [35]: 25.3% | viability, T/C [36]: 18.2%

IC50 (second compound 0.00316 µM): > 10 µM | IC50 (second compound 0.01 µM): > 10 µM | IC50 (second compound 0.0316 µM): > 10 µM | IC50 (second compound 0.1 µM): 7.69 µM | IC50 (second compound 0.316 µM): < 0.0316 µM | IC50 (second compound 1 µM): < 0.0316 µM
Compound: CC(Cn1ccc(-c2ccc(C#N)c(Cl)c2)n1)NC(=O)c1cc(C(C)O)[nH]n1 (stereo not drawn) + COc1c(OCCCN2CCOCC2)ccc2c3n(c(=NC(=O)c4cnc(N)nc4)nc12)CCN3
viability, T/C [1]: 109% | viability, T/C [2]: 89.7% | viability, T/C [3]: 111% | viability, T/C [4]: 94.9% | viability, T/C [5]: 97.7% | viability, T/C [6]: 102% | viability, T/C [7]: 83.1% | viability, T/C [8]: 83.1% | viability, T/C [9]: 85.2% | viability, T/C [10]: 81.1% | viability, T/C [11]: 104% | viability, T/C [12]: 80.4% | viability, T/C [13]: 75.3% | viability, T/C [14]: 74.6% | viability, T/C [15]: 62.8% | viability, T/C [16]: 72.4% | viability, T/C [17]: 76.7% | viability, T/C [18]: 69.9% | viability, T/C [19]: 49.5% | viability, T/C [20]: 66.2% | viability, T/C [21]: 56.2% | viability, T/C [22]: 59.2% | viability, T/C [23]: 58.5% | viability, T/C [24]: 47.6% | viability, T/C [25]: 33.6% | viability, T/C [26]: 40.9% | viability, T/C [27]: 37% | viability, T/C [28]: 39.4% | viability, T/C [29]: 37.3% | viability, T/C [30]: 49.2% | viability, T/C [31]: 19.5% | viability, T/C [32]: 18.7% | viability, T/C [33]: 20.6% | viability, T/C [34]: 19.9% | viability, T/C [35]: 22.5% | viability, T/C [36]: 14.6%

IC50 (second compound 0.00316 µM): 3.33 µM | IC50 (second compound 0.01 µM): 1.98 µM | IC50 (second compound 0.0316 µM): 3.72 µM | IC50 (second compound 0.1 µM): 1.4 µM | IC50 (second compound 0.316 µM): < 0.0316 µM | IC50 (second compound 1 µM): < 0.0316 µM
Compound: CC1(C)CCC(Nc2ncc(C(F)(F)F)c(-c3c[nH]c4c(P(C)(C)=O)c(C#N)ccc34)n2)CN1 (stereo not drawn) + COc1c(OCCCN2CCOCC2)ccc2c3n(c(=NC(=O)c4cnc(N)nc4)nc12)CCN3
viability, T/C [1]: 90% | viability, T/C [2]: 94.7% | viability, T/C [3]: 71.1% | viability, T/C [4]: 55.7% | viability, T/C [5]: 66.4% | viability, T/C [6]: 22.9% | viability, T/C [7]: 105% | viability, T/C [8]: 85.8% | viability, T/C [9]: 68.2% | viability, T/C [10]: 59.8% | viability, T/C [11]: 58.7% | viability, T/C [12]: 19.4% | viability, T/C [13]: 72.5% | viability, T/C [14]: 71.5% | viability, T/C [15]: 65.9% | viability, T/C [16]: 55% | viability, T/C [17]: 60.4% | viability, T/C [18]: 20.9% | viability, T/C [19]: 69% | viability, T/C [20]: 71.9% | viability, T/C [21]: 48.2% | viability, T/C [22]: 53.7% | viability, T/C [23]: 44.8% | viability, T/C [24]: 4.88% | viability, T/C [25]: 46.3% | viability, T/C [26]: 42.9% | viability, T/C [27]: 36.8% | viability, T/C [28]: 39.5% | viability, T/C [29]: 25.6% | viability, T/C [30]: 1.02% | viability, T/C [31]: 19.9% | viability, T/C [32]: 16.8% | viability, T/C [33]: 14.9% | viability, T/C [34]: 15.8% | viability, T/C [35]: 10.2% | viability, T/C [36]: 1.04%
